Measured values published in ChEMBL document CHEMBL3885881, “DrugMatrix”.

Species on record: Rattus norvegicus
Assay: DrugMatrix - Regimen: Daily Repeat
Assay type: toxicity, organism-based, Sprague-Dawley
Parameters: regimen Daily Repeat, gender Male, age 6-8 weeks
Conditions: in vivo, po, route oral GAVAGE, vehicle 100 % WATER; for ABSOLUTE BASOPHIL / ABSOLUTE EOSINOPHIL / ABSOLUTE LYMPHOCYTE / ABSOLUTE MONOCYTE / ABSOLUTE SEGMENTED NEUTROPHIL / BASOPHIL / EOSINOPHIL / ERYTHROCYTE COUNT / HEMATOCRIT / HEMOGLOBIN / LEUKOCYTE COUNT / LYMPHOCYTE / MEAN CORPUSCULAR HEMOGLOBIN / MEAN CORPUSCULAR HEMOGLOBIN CONCENTRATION / MEAN CORPUSCULAR VOLUME / MONOCYTE / NEUTROPHIL / NUCLEATED RED BLOOD CELLS / PLATELET COUNT: tissue Blood; for ALANINE AMINOTRANSFERASE / ALBUMIN / ALKALINE PHOSPHATASE / ASPARTATE AMINOTRANSFERASE / BLOOD UREA NITROGEN / CARBON DIOXIDE / CHLORIDE / CHOLESTEROL / CREATINE PHOSPHOKINASE / CREATININE / GLUCOSE / LACTATE DEHYDROGENASE / LIPASE / PHOSPHORUS / POTASSIUM / SODIUM / TOTAL BILIRUBIN / TOTAL PROTEIN / URIC ACID: tissue Plasma
[1] = 0 mg/kg, 72 h, dose level Control, time 3 day
[2] = 0 mg/kg, 120 h, dose level Control, time 5 day
[3] = 3 mg/kg, 72 h, dose level Low, time 3 day

SMILES: CN(C)CC[C@@H](c1ccc(Cl)cc1)c1ccccn1 [DEXCHLORPHENIRAMINE]
- ABSOLUTE BASOPHIL [1]: 0 CELLS/uL
- ABSOLUTE EOSINOPHIL [1]: 58.83 CELLS/uL
- ABSOLUTE LYMPHOCYTE [1]: 11823.5 CELLS/uL
- ABSOLUTE MONOCYTE [1]: 169 CELLS/uL
- ABSOLUTE SEGMENTED NEUTROPHIL [1]: 815.33 CELLS/uL
- BASOPHIL [1]: 0%
- EOSINOPHIL [1]: 0.5%
- ERYTHROCYTE COUNT [1]: 5.52 x10E6/uL
- HEMATOCRIT [1]: 35.77%
- HEMOGLOBIN [1]: 14.28 G/DL
- LEUKOCYTE COUNT [1]: 12.87 x10E3/uL
- LYMPHOCYTE [1]: 91.67%
- MEAN CORPUSCULAR HEMOGLOBIN [1]: 25.92 pg
- MEAN CORPUSCULAR HEMOGLOBIN CONCENTRATION [1]: 39.95 G/DL
- MEAN CORPUSCULAR VOLUME [1]: 64.85 fL
- MONOCYTE [1]: 1.33%
- NEUTROPHIL [1]: 6.5%
- NUCLEATED RED BLOOD CELLS [1]: 0 /100WBC
- PLATELET COUNT [1]: 1246.17 x10E3/uL
- ALANINE AMINOTRANSFERASE [1]: 66 u/L
- ALBUMIN [1]: 4.25 G/DL
- ALKALINE PHOSPHATASE [1]: 416 u/L
- ASPARTATE AMINOTRANSFERASE [1]: 106.17 u/L
- BLOOD UREA NITROGEN [1]: 12.67 mg/dL
- CARBON DIOXIDE [1]: 31.83 mmol/L
- CHLORIDE [1]: 102.5 MEQ/L
- CHOLESTEROL [1]: 69 mg/dL
- CREATINE PHOSPHOKINASE [1]: 601.83 u/L
- CREATININE [1]: 0.18 mg/dL
- GLUCOSE [1]: 154.5 mg/dL
- LACTATE DEHYDROGENASE [1]: 301.83 u/L
- LIPASE [1]: 11.17 u/L
- PHOSPHORUS [1]: 12.08 mg/dL
- POTASSIUM [1]: 6.12 MEQ/L
- SODIUM [1]: 145.2 MEQ/L
- TOTAL BILIRUBIN [1]: 0.17 mg/dL
- TOTAL PROTEIN [1]: 6.1 G/DL
- URIC ACID [1]: 1.57 mg/dL
- ABSOLUTE BASOPHIL [2]: 0 CELLS/uL
- ABSOLUTE EOSINOPHIL [2]: 19.33 CELLS/uL
- ABSOLUTE LYMPHOCYTE [2]: 12577.83 CELLS/uL
- ABSOLUTE MONOCYTE [2]: 106.33 CELLS/uL
- ABSOLUTE SEGMENTED NEUTROPHIL [2]: 896.5 CELLS/uL
- BASOPHIL [2]: 0%
- EOSINOPHIL [2]: 0.17%
- ERYTHROCYTE COUNT [2]: 5.84 x10E6/uL
- HEMATOCRIT [2]: 36.88%
- HEMOGLOBIN [2]: 14.48 G/DL
- LEUKOCYTE COUNT [2]: 13.6 x10E3/uL
- LYMPHOCYTE [2]: 92.17%
- MEAN CORPUSCULAR HEMOGLOBIN [2]: 24.85 pg
- MEAN CORPUSCULAR HEMOGLOBIN CONCENTRATION [2]: 39.3 G/DL
- MEAN CORPUSCULAR VOLUME [2]: 63.23 fL
- MONOCYTE [2]: 0.83%
- NEUTROPHIL [2]: 6.83%
- NUCLEATED RED BLOOD CELLS [2]: 0 /100WBC
- PLATELET COUNT [2]: 1223.5 x10E3/uL
- ALANINE AMINOTRANSFERASE [2]: 55.33 u/L
- ALBUMIN [2]: 4.08 G/DL
- ALKALINE PHOSPHATASE [2]: 355.5 u/L
- ASPARTATE AMINOTRANSFERASE [2]: 87.67 u/L
- BLOOD UREA NITROGEN [2]: 15.33 mg/dL
- CARBON DIOXIDE [2]: 33.83 mmol/L
- CHLORIDE [2]: 99.67 MEQ/L
- CHOLESTEROL [2]: 72.17 mg/dL
- CREATINE PHOSPHOKINASE [2]: 268.33 u/L
- CREATININE [2]: 0.15 mg/dL
- GLUCOSE [2]: 152.5 mg/dL
- LACTATE DEHYDROGENASE [2]: 212.67 u/L
- LIPASE [2]: 10.83 u/L
- PHOSPHORUS [2]: 11.65 mg/dL
- POTASSIUM [2]: 6.73 MEQ/L
- SODIUM [2]: 142.43 MEQ/L
- TOTAL BILIRUBIN [2]: 0.23 mg/dL
- TOTAL PROTEIN [2]: 6.07 G/DL
- URIC ACID [2]: 1.7 mg/dL
- ABSOLUTE BASOPHIL [3]: 0 CELLS/uL
- ABSOLUTE EOSINOPHIL [3]: 76 CELLS/uL
- ABSOLUTE LYMPHOCYTE [3]: 10621.67 CELLS/uL
- ABSOLUTE MONOCYTE [3]: 75 CELLS/uL
- ABSOLUTE SEGMENTED NEUTROPHIL [3]: 960.67 CELLS/uL
- BASOPHIL [3]: 0%
- EOSINOPHIL [3]: 0.67%
- ERYTHROCYTE COUNT [3]: 5.43 x10E6/uL
- HEMATOCRIT [3]: 35.8%
- HEMOGLOBIN [3]: 14.27 G/DL
- LEUKOCYTE COUNT [3]: 11.73 x10E3/uL
- LYMPHOCYTE [3]: 90.33%
- MEAN CORPUSCULAR HEMOGLOBIN [3]: 26.27 pg
- MEAN CORPUSCULAR HEMOGLOBIN CONCENTRATION [3]: 39.83 G/DL
- MEAN CORPUSCULAR VOLUME [3]: 65.9 fL
- MONOCYTE [3]: 0.67%
- NEUTROPHIL [3]: 8.33%
- NUCLEATED RED BLOOD CELLS [3]: 0 /100WBC
- PLATELET COUNT [3]: 1343.33 x10E3/uL
- ALANINE AMINOTRANSFERASE [3]: 45.67 u/L
- ALBUMIN [3]: 4.17 G/DL
- ALKALINE PHOSPHATASE [3]: 363.67 u/L
- ASPARTATE AMINOTRANSFERASE [3]: 81 u/L
- BLOOD UREA NITROGEN [3]: 12.67 mg/dL
- CARBON DIOXIDE [3]: 31.67 mmol/L
- CHLORIDE [3]: 102.33 MEQ/L
- CHOLESTEROL [3]: 64 mg/dL
- CREATINE PHOSPHOKINASE [3]: 265.33 u/L
- CREATININE [3]: 0.26 mg/dL
- GLUCOSE [3]: 152.33 mg/dL
- LACTATE DEHYDROGENASE [3]: 198 u/L
- LIPASE [3]: 13.33 u/L
- PHOSPHORUS [3]: 13.23 mg/dL
- POTASSIUM [3]: 6.5 MEQ/L
- SODIUM [3]: 145.03 MEQ/L
- TOTAL BILIRUBIN [3]: 0.13 mg/dL
- TOTAL PROTEIN [3]: 5.87 G/DL
- URIC ACID [3]: 1.57 mg/dL
